Laboratory results: ChEMBL document CHEMBL4411344, “Synthesis and biological evaluation of new long-chain squaramides as anti-chagasic agents in the BALB/c mouse model” (Bioorg Med Chem, 2019)
Active and inactive are the calls of the source. No cut-off for these calls is given here.

Experiments:
[1] = (§1) Hepatotoxicity in Balb/c mouse infected with Trypanosoma cruzi MHOM/Pe/2011/Arequipa DTU 5 trypomastigotes assessed as increase in total bilirubin level at 20 mg/kg, po once daily for 5 consecutive days starting from day 75 post infection measured on day 127 post infection relative to control; format: toxicity, organism-based; details: in vivo
Trypanosoma cruzi [2] = assay: (§2) Antitrypanosomal activity against Trypanosoma cruzi MHOM/Pe/2011/Arequipa DTU 5 trypomastigotes infected in Balb/c mouse assessed as parasite-free spleen at 20 mg/kg, po pretreated once daily for 5 consecutive days starting from day 10 post infection followed by cyclophosphamide-induced immunosuppression on day 100 post infection measured on day 127 post infection by PCR method; format: functional
[3] = Toxicity in Balb/c mouse assessed as death at 20 mg/kg, po once daily for 5 consecutive days starting from day 10 post infection; format: organism-based; details: in vivo
Trypanosoma cruzi [4] = assay: as §2, with “adipose tissue” for “spleen”; format: functional
[5] = Toxicity in Balb/c mouse assessed as reduction in body mass at 20 mg/kg, po once daily for 5 consecutive days starting from day 75 post infection relative to control; format: organism-based; parameters: scale not given: the % may be the effect or the level left; details: in vivo
Trypanosoma cruzi [6] = assay: (§3) Antitrypanosomal activity against Trypanosoma cruzi MHOM/Pe/2011/Arequipa DTU 5 trypomastigotes infected in Balb/c mouse assessed as reduction in parasitaemia level at 20 mg/kg, po once daily for 5 consecutive days starting from day 10 post infection measured on day 40 post infection by Neubauer chamber method; format: functional, organism-based
Trypanosoma cruzi [7] = assay: as §2, with “lungs” for “spleen”; format: functional
[8] = Selectivity index, ratio of IC50 for African green monkey Vero cells to IC50 for Trypanosoma cruzi TINF/CH/1956/Tulahuen DTU 6 epimastigotes; format: toxicity; details: read-out: Ratio IC50
Trypanosoma cruzi [9] = assay: as §2, with “as parasite-free muscle at 20” for “as parasite-free spleen at 20”, “from day 75 post infection” for “from day 10 post infection”; format: functional
Trypanosoma cruzi [10] = assay: Trypanocidal activity against Trypanosoma cruzi MHOM/Pe/2011/Arequipa DTU 5 trypomastigotes derived from infected Balb/c mouse after 72 hrs by resazurin dye based assay; format: functional, organism-based; details: MHOM/Pe/2011/Arequipa DTU 5, 72 h
[11] = as §1, with “ratio of serum AST to GOT” for “total bilirubin”, “10” for “75”, “16” for “127”; format: toxicity, organism-based; details: in vivo
Trypanosoma cruzi [12] = assay: Antitrypanosomal activity against Trypanosoma cruzi MHOM/Pe/2011/Arequipa DTU 5 epimastigotes assessed as effect on parasite glycolytic pathway by measuring increase in glycerol excretion at IC25 after 72 hrs by 1H NMR method; format: functional
Trypanosoma cruzi [13] = assay: Trypanocidal activity against Trypanosoma cruzi IRHOD/CO/2008/SN3 DTU 1 trypomastigotes derived from infected Balb/c mouse after 72 hrs by resazurin dye based assay; format: functional, organism-based; details: IRHOD/CO/2008/SN3 DTU 1, 72 h
Trypanosoma cruzi [14] = assay: as §3, with “measured every 2 to 3 days up to” for “measured on”, “day 50 post infection starting from day 7” for “day 40”; format: functional, organism-based
[15] = Selectivity index, ratio of IC50 for African green monkey Vero cells to IC50 for Trypanosoma cruzi IRHOD/CO/2008/SN3 DTU 1 trypomastigotes derived from infected Balb/c mouse; format: toxicity; details: read-out: Ratio IC50
Trypanosoma cruzi [16] = assay: as §2, with “oesophagus” for “spleen”; format: functional
Trypanosoma cruzi [17] = assay: Antitrypanosomal activity against Trypanosoma cruzi MHOM/Pe/2011/Arequipa DTU 5 trypomastigotes infected in Balb/c mouse assessed as reduction in Ig-G level in serum at 20 mg/kg, po once daily for 5 consecutive days starting from day 10 post infection measured on day 100 post infection by ELISA; format: functional, organism-based
Vero = assay: Cytotoxicity against African green monkey Vero cells assessed as reduction in cell viability after 72 hrs by resazurin dye based assay; details: Chlorocebus sabaeus
[18] = Nephrotoxicity in Balb/c mouse infected with Trypanosoma cruzi MHOM/Pe/2011/Arequipa DTU 5 trypomastigotes assessed as decrease in serum uric acid level at 20 mg/kg, po once daily for 5 consecutive days starting from day 75 post infection measured on day 81 post infection relative to control; format: toxicity, organism-based; details: in vivo
[19] = as §1, with “ratio of serum ALT to GPT” for “total bilirubin”, “81” for “127”; format: toxicity, organism-based; details: in vivo
[20] = Selectivity index, ratio of IC50 for African green monkey Vero cells to IC50 for Trypanosoma cruzi IRHOD/CO/2008/SN3 DTU 1 epimastigotes; format: toxicity; details: read-out: Ratio IC50
[21] = Toxicity in Balb/c mouse assessed as death at 20 mg/kg, po once daily for 5 consecutive days starting from day 75 post infection; format: organism-based; details: in vivo
[22] = Nephrotoxicity in Balb/c mouse infected with Trypanosoma cruzi MHOM/Pe/2011/Arequipa DTU 5 trypomastigotes assessed as decrease in serum urea level at 20 mg/kg, po once daily for 5 consecutive days starting from day 10 post infection measured on day 127 post infection relative to control; format: toxicity, organism-based; details: in vivo
Trypanosoma cruzi [23] = assay: as §2, with “as parasite-free lungs at 20” for “as parasite-free spleen at 20”, “from day 75 post infection” for “from day 10 post infection”; format: functional
Trypanosoma cruzi [24] = assay: Trypanocidal activity against Trypanosoma cruzi MHOM/Pe/2011/Arequipa DTU 5 amastigotes infected in African green monkey Vero cells after 72 hrs by Giemsa-staining based microscopic assay; format: functional, organism-based; details: MHOM/Pe/2011/Arequipa DTU 5, Vero
[25] = Nephrotoxicity in Balb/c mouse infected with Trypanosoma cruzi MHOM/Pe/2011/Arequipa DTU 5 trypomastigotes assessed as decrease in serum urea level at 20 mg/kg, po once daily for 5 consecutive days starting from day 75 post infection measured on day 127 post infection relative to control; format: toxicity, organism-based; details: in vivo
[26] = Selectivity index, ratio of IC50 for African green monkey Vero cells to IC50 for Trypanosoma cruzi TINF/CH/1956/Tulahuen DTU 6 amastigotes infected in African green monkey Vero cells; format: toxicity; details: read-out: Ratio IC50
Trypanosoma cruzi [27] = assay: Antitrypanosomal activity against Trypanosoma cruzi MHOM/Pe/2011/Arequipa DTU 5 trypomastigotes infected in Balb/c mouse assessed as reduction in parasitaemia reactivation at 20 mg/kg, po pretreated once daily for 5 consecutive days starting from day 10 post infection followed by cyclophosphamide-induced immunosuppression on day 100 post infection measured within 1 week post immunosuppression by Neubauer chamber method; format: functional; parameters: scale not given: the % may be the effect or the level left
Trypanosoma cruzi [28] = assay: Trypanocidal activity against Trypanosoma cruzi TINF/CH/1956/Tulahuen DTU 6 amastigotes infected in African green monkey Vero cells after 72 hrs by Giemsa-staining based microscopic assay; format: functional, organism-based; details: TINF/CH/1956/Tulahuen DTU 6, Vero
Trypanosoma cruzi [29] = assay: as §3, with “23” for “40”, “method relative to control” for “method”; format: functional; parameters: scale not given: the % may be the effect or the level left
[30] = Toxicity in Balb/c mouse assessed as reduction in body mass at 20 mg/kg, po once daily for 5 consecutive days starting from day 10 post infection relative to control; format: organism-based; parameters: scale not given: the % may be the effect or the level left; details: in vivo
[31] = Hepatotoxicity in Balb/c mouse infected with Trypanosoma cruzi MHOM/Pe/2011/Arequipa DTU 5 trypomastigotes assessed as increase in ratio of serum AST to GOT level at 20 mg/kg, po once daily for 5 consecutive days starting from day 10 post infection measured on day 127 post infection by biochemical analysis relative to control; format: toxicity, organism-based; details: in vivo

Compound	Activity [1] [%]	Activity (Trypanosoma cruzi [2])	Activity [3]	Activity (Trypanosoma cruzi [4])	Activity [5] [%]	Activity (Trypanosoma cruzi [6])	Activity (Trypanosoma cruzi [7])	selectivity ratio [8]	Activity (Trypanosoma cruzi [9])	IC50 (Trypanosoma cruzi [10]) [µM]	Activity [11] [U/L]	Activity (Trypanosoma cruzi [16])	Activity (Trypanosoma cruzi [17])	Activity [19] [U/L]	Activity [21]	Activity [22] [mg/dL]	Activity (Trypanosoma cruzi [23])	Activity [25] [mg/dL]	Activity (Trypanosoma cruzi [27])	Activity [30] [%]	other results
CCCCCCCCCCCCCCCCNc1c(N(C)CCCN(C)C)c(=O)c1=O	10	67%	Non-Toxic	67%	> 10	Active	67%	71.1	78%	4.4	10 to 20	67%	Active	20 to 30	Non-Toxic	10 to 20	78%	10 to 20	26%	> 10	Activity (Trypanosoma cruzi [12]): 43%; IC50 (Trypanosoma cruzi [13]): 5.4 µM; Activity (Trypanosoma cruzi [14]): Active; selectivity ratio [15]: 126; IC50 (Vero): 679 µM; Activity [18]: 20 to 30 mg/dL; selectivity ratio [20]: 42.5; IC50 (Trypanosoma cruzi [24]): 0.2 µM; selectivity ratio [26]: 106; IC50 (Trypanosoma cruzi [28]): 6.4 µM; Activity (Trypanosoma cruzi [29]): 80%
CCCCCCNc1c(N(C)CCCN(C)C)c(=O)c1=O		inactive	Non-Toxic	inactive	> 10		inactive	61.3	inactive	6.5	30 to 40	inactive	inactive	20 to 30	Non-Toxic	10 to 20	inactive	10 to 20	inactive	> 10	Activity [31]: 20 to 30 U/L; Activity (Trypanosoma cruzi [12]): Active; IC50 (Trypanosoma cruzi [13]): 15.8 µM; Activity (Trypanosoma cruzi [14]): inactive; selectivity ratio [15]: 57; IC50 (Vero): 900 µM; Activity [18]: 10 to 20 mg/dL; selectivity ratio [20]: 63; IC50 (Trypanosoma cruzi [24]): 17.3 µM; selectivity ratio [26]: 23.5; IC50 (Trypanosoma cruzi [28]): 38.3 µM
O=C(Cn1ccnc1[N+](=O)[O-])NCc1ccccc1 [BENZNIDAZOLE]	20	33%	Non-Toxic	33%	> 10	Active	33%		55%		> 40	33%	Active	20 to 30	Non-Toxic	20 to 30	55%	20 to 30	75%	> 10	Activity [31]: > 40 U/L; Activity (Trypanosoma cruzi [29]): 70%
